Laboratory results taken from US6852735B1, “Siastatin B derivatives having a glycosidase inhibitory activity and processes for producing the same” (Zaidan Hojin Biseibutsu Kagaku Kenkyu Kai, priority 1998, dated 2005).
Counter-ions that a name gives are not always drawn.

Question: Which melting point does the source give for `CC(=O)NC1NCC(CO)C(O)C1O` (stereo not drawn) (as salt: hydrochloride) [Formula (V), 3-decarboxy-4-epi-3-hydroxymethyl-siastain B] here?
Answer: Its melting point is 201 to 202 °C (dec.).

Question: With `O=C(N[C@H]1NC[C@H](CO)[C@@H](O)[C@@H]1O)C(F)(F)F` (as salt: hydrochloride) [Formula (X), 6-deacetamido-3-decarboxy-4-epi-3-hydroxymethyl-6-trifluoroacetamido-siastain B] as the molecule, how does the melting point read?
Answer: The melting point was 88 to 90 °C.
